Key:
subjects with dry eye = assay: Tear film break up time (TFBUT), Example 1 clinical study; format: in vivo, human; conditions: for Tear Film Break Up Time, change from baseline (mean): visit 2 (baseline) to visit 5, 0.05% and 0.1% groups pooled; for Tear Film Break Up Time, Mean Difference between Tβ4 and Placebo (Tβ4-Placebo): visit 2 to visit 5
Experimental: As used herein, the terms “tear breakup time” or “TBUT” or “tear film breakup time” or “TFBUT” can refer to a clinical test that measures the interval between the individual's last complete blink and the breakup of the tear film. The test can be used to assess for DES. To measure TBUT, fluorescein is instilled into the patient's tear film and the patient is asked not to blink while the tear film is observed under a broad beam of cobalt blue illumination. The TBUT is recorded as the number of seconds that elapse between the last blink and the appearance of the first dry spot in the tear film.
The presently disclosed subject matter also provides for methods of improving tear film stability. Tear film stability can be evaluated by various assessments in the art, including but not limited to a TFBUT analysis. […] In order to achieve maximum fluorescence, an appropriate waiting period is implemented after instillation before evaluating TFBUT. With the aid of a slit-lamp, the integrity of the tear film can be monitored by noting the time it takes to form […] from the time that the eye is opened. TFBUT can be measured in seconds using a stopwatch and a digital image recording system for one eye followed by the second eye. A negative test result is normal, whereby more than about 10 seconds of TFBUT is recorded.
This study was a multicenter, randomized, double-masked study designed to evaluate the efficacy and safety of 0.05% and 0.1% Tβ4 ophthalmic solution compared to placebo in subjects with dry eye.
The study consisted of two periods: a 7-day run-in period and a 28-day treatment period.
The clinical dosage form and packaging of Tβ4 ophthalmic solution and the placebo ophthalmic solutions were identical sterile, low-density polyethylene unit-dose non-preserved bottles. They were packaged in foil-wrap pouches to prevent light exposure, each containing single-use bottles. Throughout the study, between day 1 and day 29, patients were instructed to instill one drop of study medication in each eye four times daily, once in the morning, noon, afternoon and in the evening before bed. Patients were assigned randomization kit numbers in strict numerical sequence, using a code generated by an independent biostatistician. All investigators, study and site personnel, and patients were masked to the treatment assignments.
Patients were evaluated on day 8 (visit 3), day 15 (visit 4), and day 29 (visit 5) during the dosing period. Exposure to the CAE occurred on days 14 and 28. At each study visit, a panel of dry eye signs and symptoms and safety measures were evaluated (including both before [pre-CAE] and after [post-CAE] exposure).

[1] = injectable solution, 14 consecutive days, four escalating dose levels; cited from earlier work
[2] = higher tear film stability group
[3] = lower tear film stability group

Substance: thymosin beta 4 [Tβ4]
- Tear Film Break Up Time, change from baseline (mean) (subjects with dry eye; [2]): 0.14 s
- Tear Film Break Up Time, Mean Difference between Tβ4 and Placebo (Tβ4-Placebo) (subjects with dry eye; [2]): 0.09 s
- Tear Film Break Up Time, change from baseline (mean) (subjects with dry eye; [3]): 0.74 s
- Tear Film Break Up Time, Mean Difference between Tβ4 and Placebo (Tβ4-Placebo) (subjects with dry eye; [3]): 0.20 s
- safety and tolerability [1]: safe and well-tolerated

Source: US20210213103A1, “METHODS OF TREATING DRY EYE SYNDROME” (REGENTREE, LLC, priority 2016, published 2021)
